Experimental data as given in patent publication US20210038607A1, “OXADIAZOLYLTHIOPHENE DERIVATIVES USEFUL AS HISTONE DEACETYLASE INHIBITORS” (Karus Therapeutics Limited, priority 2018, published 2021).

What was measured:
Human HDAC10 = biological target: T1, Human HDAC10 (Homo sapiens, UniProt Q969S8); assay: HDAC10 biochemical assay, AMC-labeled peptide substrate; conditions: read-out: HDAC Isoform IC50 (nM) 10
T1 construct: Human HDAC10 (a.a. 1-481); GST (N); His (C); host or cells: baculovirus expression system
T1 sequence (Q969S8 1-481): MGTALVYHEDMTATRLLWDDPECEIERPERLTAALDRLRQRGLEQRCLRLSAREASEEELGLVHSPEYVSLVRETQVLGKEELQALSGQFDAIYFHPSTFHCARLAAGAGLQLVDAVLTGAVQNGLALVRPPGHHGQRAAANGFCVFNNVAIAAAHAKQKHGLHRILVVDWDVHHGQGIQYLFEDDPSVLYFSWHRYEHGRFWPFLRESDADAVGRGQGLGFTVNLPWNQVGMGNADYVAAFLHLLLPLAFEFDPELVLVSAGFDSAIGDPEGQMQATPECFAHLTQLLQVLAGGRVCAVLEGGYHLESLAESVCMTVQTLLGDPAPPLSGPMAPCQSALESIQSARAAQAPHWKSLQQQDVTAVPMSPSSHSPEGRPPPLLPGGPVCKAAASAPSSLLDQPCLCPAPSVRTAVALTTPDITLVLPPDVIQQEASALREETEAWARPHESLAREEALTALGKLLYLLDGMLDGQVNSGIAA
Method in brief: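 Two-step fluorogenic read-out (Ex/Em 360/460) after developer digestion of deacetylated RHKK(Ac)AMC (50 μM). Deacetylation ran 2 h at 30 °C with 12 ng/ul HDAC10 (aa 1-481, GST/His tags, baculovirus) in Tris-HCl pH 8.0, BSA, 1% DMSO.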

Human HDAC11 = biological target: T2, Human HDAC11 (Homo sapiens, UniProt Q96DB2); assay: HDAC11 biochemical assay, class IIa-specific substrate; conditions: read-out: HDAC Isoform IC50 (nM) 11
T2 construct: Human HDAC11 (full length); His (N); host or cells: baculovirus expression system
T2 sequence (Q96DB2 1-347): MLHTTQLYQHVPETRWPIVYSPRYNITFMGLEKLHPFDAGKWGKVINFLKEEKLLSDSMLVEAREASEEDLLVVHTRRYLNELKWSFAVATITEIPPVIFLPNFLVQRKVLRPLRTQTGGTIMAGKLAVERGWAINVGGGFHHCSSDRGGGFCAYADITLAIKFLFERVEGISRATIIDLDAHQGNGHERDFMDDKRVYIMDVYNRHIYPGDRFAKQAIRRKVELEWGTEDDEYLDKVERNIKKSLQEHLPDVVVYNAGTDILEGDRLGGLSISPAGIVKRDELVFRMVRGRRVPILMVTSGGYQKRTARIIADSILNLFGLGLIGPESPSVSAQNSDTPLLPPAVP
Method in brief: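 Full-length N-His human HDAC11 from baculovirus, 5 ng/μl, incubated with 50 μM Boc-Lys(trifluoroacetyl)-AMC for 30 min at 30 °C. Buffer: 50 mM Tris-HCl pH 8.0, 137 mM NaCl, 2.7 mM KCl, 1 mM MgCl2, 1 mg/mL BSA, 1% DMSO. Developer releases AMC; fluorescence read at 360/460 nm.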

[1] = system: acetylated α-tubulin in A549 lung adenocarcinoma cells; assay: Acetylated α-tubulin in-cell western (ICW) assay; assay type: cell-based; conditions: Homo sapiens, 16 h exposure, relative to 40 μM scriptaid positive control, read-out: EC50 Ac-α-tubulin, A549 cells
Method in brief: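 A549 cells exposed to compound for 16 h at 37 °C (0.4% DMSO final), then fixed and immunostained for acetylated α-tubulin or histone H3 with near-infrared detection, signal normalised to cell stain. Response expressed relative to DMSO controls and to 40 μM scriptaid (tubulin) or 40 μM TSA (H3); EC50 by constrained nonlinear regression.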

Row | IC50 (Human HDAC10) [nM] | IC50 (Human HDAC11) [nM] | EC50 [1] [µM] | Compound
1 | > 10000 | > 10000 | ≤ 1 | COC1CN(C(=O)c2cnnc(N(Cc3ccc(-c4noc(C(F)(F)F)n4)s3)c3cnccn3)c2)C1 [Example DZ, 5-(3-Methoxyazetidine-1-carbonyl)-N-(pyrazin-2-yl)-N-({5-[5-(trifluoromethyl)-1,2,4-oxadiazol-3-yl]thiophen-2-yl}methyl)pyridazin-3-amine]
2 | > 10000 | > 10000 | ≤ 1 | CNC(=O)c1ccc(N(Cc2ccc(-c3noc(C(F)(F)F)n3)s2)c2cnccn2)nn1 [Example FC, N-Methyl-6-[(pyrazin-2-yl)({5-[5-(trifluoromethyl)-1,2,4-oxadiazol-3-yl]thiophen-2-yl}methyl)amino]pyridazine-3-carboxamide]
3 | > 10000 | > 10000 | ≤ 1 | O=C(c1ccc(N(Cc2ccc(-c3noc(C(F)(F)F)n3)s2)c2cnccn2)nn1)N1CCOCC1 [Example DS, 6-(Morpholine-4-carbonyl)-N-(pyrazin-2-yl)-N-({5-[5-(trifluoromethyl)-1,2,4-oxadiazol-3-yl]thiophen-2-yl}methyl)pyridazin-3-amine]
